Test results published in the NIST ThermoML archive (doi:10.1016/j.jct.2009.05.004).

Assay: mn = molality of the nth substance listed, in mol/kg
Details: Liquid, Vibrating tube method

[Br-].[Br-].[Zn+2] [zinc bromide] + CCO
Details	mass density [kg/m3]
333.15 K, 25621 kPa, m1 = 0.3043	825.37
333.15 K, 29810 kPa, m1 = 0.4384	848.46
333.15 K, 29875 kPa, m1 = 1.49	995.4
333.15 K, 29941 kPa, m1 = 0.05681	791.79
333.15 K, 34256 kPa, m1 = 0.3043	832.31
333.15 K, 34920 kPa, m1 = 0.4384	852.42
333.15 K, 34965 kPa, m1 = 1.49	999.47
333.15 K, 39957 kPa, m1 = 1.49	1003.26
333.16 K, 1604 kPa, m1 = 1.887	1020.71
333.16 K, 5024 kPa, m1 = 0.3043	806.15
333.16 K, 10325 kPa, m1 = 0.3043	811.46
333.16 K, 14730 kPa, m1 = 0.4384	835.35
333.16 K, 14913 kPa, m1 = 0.9305	905.9
333.16 K, 15014 kPa, m1 = 0.05681	778.76
333.16 K, 29941 kPa, m1 = 0.3043	828.93
333.16 K, 30014 kPa, m1 = 1.887	1047.6
333.16 K, 35068 kPa, m1 = 0.05681	795.79
333.16 K, 39745 kPa, m1 = 0.3043	836.38
333.16 K, 39787 kPa, m1 = 0.1696	816.47
333.16 K, 39824 kPa, m1 = 0.4384	855.99
333.17 K, 1074 kPa, m1 = 0.4384	821.64
333.17 K, 25080 kPa, m1 = 0.9305	915
333.17 K, 39803 kPa, m1 = 0.9305	926.52
333.17 K, 39921 kPa, m1 = 0.05681	799.36
333.18 K, 9721 kPa, m1 = 0.1696	791.08
333.18 K, 14944 kPa, m1 = 0.1696	796.06
333.18 K, 19908 kPa, m1 = 0.1696	800.57
333.18 K, 19971 kPa, m1 = 1.887	1038.86
333.18 K, 25143 kPa, m1 = 1.887	1043.47
333.18 K, 29806 kPa, m1 = 0.1696	808.92
333.18 K, 34946 kPa, m1 = 0.1696	812.92
333.2 K, 24905 kPa, m1 = 0.1696	804.89
353.12 K, 1215 kPa, m1 = 0.1696	762.79
353.12 K, 4885 kPa, m1 = 0.9305	876.1
353.12 K, 24736 kPa, m1 = 0.4384	827.02
353.12 K, 29724 kPa, m1 = 0.4384	831.58
353.12 K, 34818 kPa, m1 = 0.1696	796.87
353.12 K, 40086 kPa, m1 = 0.9305	910.04
353.13 K, 19976 kPa, m1 = 0.4384	822.41
353.13 K, 29922 kPa, m1 = 1.887	1029.35
353.13 K, 34919 kPa, m1 = 0.9305	905.88
353.13 K, 35245 kPa, m1 = 0.05681	780.23
353.14 K, 5032 kPa, m1 = 0.3043	786.89
353.14 K, 5065 kPa, m1 = 0.05681	750.01
353.14 K, 9866 kPa, m1 = 0.1696	772.71
353.14 K, 9945 kPa, m1 = 1.887	1009.26
353.14 K, 19983 kPa, m1 = 0.1696	783.31
353.14 K, 25841 kPa, m1 = 0.3043	808.62
353.14 K, 34738 kPa, m1 = 1.887	1033.52
353.14 K, 39852 kPa, m1 = 0.3043	820.61
353.15 K, 1306 kPa, m1 = 0.9305	871.91
353.15 K, 1451 kPa, m1 = 0.05681	745.7
353.15 K, 1574 kPa, m1 = 0.3043	782.83
353.15 K, 1687 kPa, m1 = 1.49	948.01
353.15 K, 5032 kPa, m1 = 1.49	951.99
353.15 K, 10024 kPa, m1 = 0.05681	755.67
353.15 K, 10024 kPa, m1 = 1.49	957.68
353.15 K, 10145 kPa, m1 = 0.3043	792.67
353.15 K, 15624 kPa, m1 = 1.49	963.72
353.15 K, 19924 kPa, m1 = 0.05681	766.16
353.15 K, 19957 kPa, m1 = 1.49	968.14
353.15 K, 20412 kPa, m1 = 0.3043	803.4
353.15 K, 25214 kPa, m1 = 1.49	973.21
353.15 K, 29658 kPa, m1 = 1.49	977.25
353.15 K, 29952 kPa, m1 = 0.3043	812.36
353.15 K, 30014 kPa, m1 = 0.05681	775.72
353.15 K, 34984 kPa, m1 = 1.49	981.78
353.15 K, 39958 kPa, m1 = 1.49	985.72
353.15 K, 39984 kPa, m1 = 0.05681	784.05
353.16 K, 4839 kPa, m1 = 0.1696	767.04
353.16 K, 9987 kPa, m1 = 0.9305	881.84
353.16 K, 15412 kPa, m1 = 0.05681	761.52
353.16 K, 15624 kPa, m1 = 0.3043	798.54
353.16 K, 24888 kPa, m1 = 0.1696	788.05
353.16 K, 34658 kPa, m1 = 0.3043	816.41
353.16 K, 34826 kPa, m1 = 0.4384	835.96
353.16 K, 39714 kPa, m1 = 1.887	1037.55
353.17 K, 4861 kPa, m1 = 0.4384	806.08
353.17 K, 14799 kPa, m1 = 0.1696	778.02
353.17 K, 14872 kPa, m1 = 1.887	1014.63
353.17 K, 19935 kPa, m1 = 0.9305	892.23
353.17 K, 24932 kPa, m1 = 0.05681	771.05
353.17 K, 29746 kPa, m1 = 0.1696	792.5
353.17 K, 39702 kPa, m1 = 0.1696	800.82
353.18 K, 9743 kPa, m1 = 0.4384	811.63
353.18 K, 14964 kPa, m1 = 0.9305	887.17
353.18 K, 29738 kPa, m1 = 0.9305	901.43
353.19 K, 1518 kPa, m1 = 0.4384	802.12
353.19 K, 19828 kPa, m1 = 1.887	1019.76
353.19 K, 24834 kPa, m1 = 0.9305	896.96
353.19 K, 39796 kPa, m1 = 0.4384	839.94
353.2 K, 1878 kPa, m1 = 1.887	999.87
353.2 K, 4878 kPa, m1 = 1.887	1003.45
353.2 K, 24815 kPa, m1 = 1.887	1024.64
353.21 K, 14513 kPa, m1 = 0.4384	816.8
373.12 K, 1190 kPa, m1 = 0.4384	780.46
373.12 K, 1697 kPa, m1 = 1.887	977.46
373.12 K, 5014 kPa, m1 = 1.887	981.85
373.12 K, 9878 kPa, m1 = 0.4384	791.75
373.12 K, 29863 kPa, m1 = 0.1696	775.41
373.12 K, 29926 kPa, m1 = 1.887	1010.28
373.12 K, 29956 kPa, m1 = 0.4384	814.15
373.13 K, 4952 kPa, m1 = 0.05681	729.35
373.13 K, 4965 kPa, m1 = 0.1696	746.64
373.13 K, 9897 kPa, m1 = 1.887	988.07
373.13 K, 14946 kPa, m1 = 1.887	994.16
373.13 K, 20065 kPa, m1 = 1.887	1000
373.13 K, 24795 kPa, m1 = 0.4384	808.88
373.13 K, 24847 kPa, m1 = 0.1696	770.29
373.14 K, 1612 kPa, m1 = 0.1696	742.13
